From patent publication US11840686B2, “Modulation of prekallikrein (PKK) expression” (Ionis Pharmaceuticals, Inc., priority 2013, dated 2023)
Strand notation (5' to 3'): a small letter for the sugar, then the base; units joined by * are phosphorothioate-linked, units joined directly phosphodiester-linked; [ ] holds rarer units or linkages, { } end groups; capitals alone tell only the bases. e = 2'-O-(2-methoxyethyl) (MOE); [5mC] = 5-methylcytosine; d = 2'-deoxy (DNA)

tested on: human PKK mRNA; assay: Antisense inhibition of human PKK mRNA in HepaRG cells, 3,000 nM (Example 1); assay type: cell-based; settings: Table 3; HepaRG cells, electroporation with 3,000 nM antisense oligonucleotide, approx. 24 hours; PKK mRNA by RT-PCR (RTS3454), relative to untreated control cells
Method in brief: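 HepaRG cells, 20,000 per well, were electroporated with 3,000 nM 5-10-5 MOE gapmer (phosphorothioate, 5-methylcytosine). After about 24 h, PKK mRNA was measured by qRT-PCR with primer probe set RTS3454 and normalised to RIBOGREEN total RNA. Values are percent inhibition versus untreated cells.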

Substance | % inhibition
531120 (antisense eA*eA*eA*eT*eA*dA*dA*dA*dG*d[5mC]*dA*d[5mC]*dT*d[5mC]*dA*eG*eA*e[5mC]*eT*eG) [compound 531120] | 0%
531122 (antisense eT*eA*eA*e[5mC]*eA*dA*dA*dA*dA*dT*dG*d[5mC]*d[5mC]*dT*dT*eG*eT*eG*e[5mC]*e[5mC]) [compound 531122] | 33%
531124 (antisense eG*eT*eA*e[5mC]*eT*dA*dA*dA*d[5mC]*dA*dT*d[5mC]*d[5mC]*dT*dA*eA*eG*eT*eG*eA) [compound 531124] | 2%
531125 (antisense eA*e[5mC]*eT*e[5mC]*eG*d[5mC]*d[5mC]*dT*dT*dT*dG*dT*dG*dA*d[5mC]*eT*e[5mC]*eG*eA*eT) [compound 531125] | 23%
531126 (antisense eT*eT*eT*eT*eG*dA*dA*dT*d[5mC]*dT*dT*d[5mC]*dA*dT*dT*e[5mC]*eA*eA*eA*eG) [compound 531126] | 0%
531127 (antisense e[5mC]*eA*eG*eA*eG*d[5mC]*d[5mC]*dT*dT*dG*dA*dT*d[5mC]*dA*dG*eA*eA*eT*eA*eA) [compound 531127] | 12%
531128 (antisense eA*eA*eG*eT*eT*d[5mC]*d[5mC]*dA*d[5mC]*d[5mC]*dT*dT*d[5mC]*dT*dA*eA*e[5mC]*eT*eG*eG) [compound 531128] | 18%
531129 (antisense eA*eG*e[5mC]*eA*eG*d[5mC]*dT*d[5mC]*dA*d[5mC]*dA*d[5mC]*d[5mC]*d[5mC]*dA*eA*eA*eA*eA*eG) [compound 531129] | 0%
531130 (antisense eT*eT*e[5mC]*eT*eG*dT*dG*dT*d[5mC]*dA*dA*dT*dT*dA*dT*eA*eA*eA*e[5mC]*eA) [compound 531130] | 0%
531131 (antisense eT*eA*eG*eA*eA*dA*dG*dA*dG*dT*dA*dA*dG*d[5mC]*d[5mC]*eT*eT*e[5mC]*eA*e[5mC]) [compound 531131] | 0%
531132 (antisense eA*eG*eT*eG*eA*dG*dG*dT*dT*dA*d[5mC]*dT*d[5mC]*dA*d[5mC]*e[5mC]*eA*eG*eA*eG) [compound 531132] | 0%
531133 (antisense eT*eT*eT*eT*eG*dT*dT*dG*dT*dG*d[5mC]*dA*dG*dA*d[5mC]*eT*eG*eA*eA*eA) [compound 531133] | 19%
531134 (antisense eT*eT*eA*e[5mC]*e[5mC]*d[5mC]*dA*dT*d[5mC]*dA*dA*dA*dG*d[5mC]*dA*eG*eT*eG*eG*eG) [compound 531134] | 6%
531135 (antisense eA*eA*eT*eG*eT*dT*dG*dT*dG*dA*dA*dT*dA*d[5mC]*d[5mC]*eA*eT*e[5mC]*e[5mC]*e[5mC]) [compound 531135] | 16%
531136 (antisense eT*eA*eA*e[5mC]*eA*dT*dT*dT*d[5mC]*dT*dA*dT*dG*dG*dG*e[5mC]*e[5mC]*eT*eG*eA) [compound 531136] | 6%
531137 (antisense eT*eG*eT*e[5mC]*eT*dA*d[5mC]*dT*dA*dT*dT*dT*dG*dA*d[5mC]*e[5mC]*eA*eA*eT*eA) [compound 531137] | 19%
531138 (antisense eT*eT*eT*eA*eA*dA*dT*dG*dT*dG*dT*d[5mC]*dA*d[5mC]*dT*eT*eA*eA*eT*e[5mC]) [compound 531138] | 0%
531139 (antisense eT*e[5mC]*eA*e[5mC]*eT*dA*dA*dA*dA*d[5mC]*dA*dA*dA*dA*dA*eT*eA*e[5mC]*eT*eT) [compound 531139] | 0%
531140 (antisense eT*e[5mC]*eT*eT*e[5mC]*d[5mC]*dA*dG*dG*d[5mC]*d[5mC]*dA*dA*d[5mC]*d[5mC]*eA*e[5mC]*e[5mC]*eT*eT) [compound 531140] | 22%
531141 (antisense eT*eG*e[5mC]*eA*eA*dG*dG*d[5mC]*dA*dT*dG*dT*dG*dT*dG*e[5mC]*eA*e[5mC]*eA*eA) [compound 531141] | 47%

Substance | % inhibition
531142 (antisense eT*eG*eT*eT*eT*dA*dA*dA*dA*dT*dA*dT*d[5mC]*dT*d[5mC]*eT*eA*eT*eA*e[5mC]) [compound 531142] | 8%
531143 (antisense e[5mC]*eA*eT*eG*eG*dA*dA*dA*dA*dA*dT*dT*dA*dA*dG*e[5mC]*eT*e[5mC]*eA*eT) [compound 531143] | 0%
531144 (antisense eT*eG*eA*eA*eG*dA*dT*dT*d[5mC]*dT*dA*dT*dT*dT*dA*eA*e[5mC]*eA*eA*eA) [compound 531144] | 0%
531145 (antisense eG*e[5mC]*e[5mC]*eT*eA*dG*dG*dA*dG*dA*dG*dA*dA*dA*dA*eA*eT*eA*eA*eA) [compound 531145] | 0%
531146 (antisense e[5mC]*e[5mC]*eA*eG*eT*dG*dT*dA*dA*dT*dT*d[5mC]*dA*dA*dA*eG*eG*eA*eG*e[5mC]) [compound 531146] | 40%
531147 (antisense e[5mC]*e[5mC]*eA*eT*eT*dA*dT*dT*dT*d[5mC]*d[5mC]*dA*dT*d[5mC]*dA*e[5mC]*e[5mC]*eT*eG*e[5mC]) [compound 531147] | 18%
531148 (antisense eT*eA*e[5mC]*e[5mC]*e[5mC]*dA*dA*dA*dT*dT*dA*dT*dA*d[5mC]*d[5mC]*eT*eG*eG*eA*eA) [compound 531148] | 8%
531149 (antisense eA*eG*eA*eG*eG*dT*dA*dA*dA*dG*d[5mC]*dA*dA*d[5mC]*dT*eT*eG*e[5mC]*e[5mC]*e[5mC]) [compound 531149] | 45%
531150 (antisense eT*e[5mC]*e[5mC]*eT*eT*dA*dA*dT*dA*dG*dT*d[5mC]*dA*dT*dA*eG*e[5mC]*eA*eG*eG) [compound 531150] | 48%
531151 (antisense eT*e[5mC]*eA*e[5mC]*e[5mC]*dA*d[5mC]*d[5mC]*dA*dT*dT*dT*dT*dT*d[5mC]*eA*e[5mC]*eA*eT*eG) [compound 531151] | 44%
531152 (antisense eG*eT*eT*eA*eT*dG*dG*dA*dT*dA*dT*dA*dG*dA*d[5mC]*eT*eT*eT*eA*eA) [compound 531152] | 0%
531153 (antisense e[5mC]*eT*eA*eG*eA*dA*dG*d[5mC]*dA*dA*dT*dA*dT*dT*dT*eA*eA*eA*eG*e[5mC]) [compound 531153] | 0%
531154 (antisense eA*eT*eG*eA*eA*dG*dT*dA*dA*dG*dA*dT*dG*d[5mC]*dT*eT*eA*eA*eA*eA) [compound 531154] | 16%
531155 (antisense e[5mC]*eT*eT*e[5mC]*eT*dT*dG*dT*d[5mC]*dT*d[5mC]*dA*dG*dA*dT*eT*eA*e[5mC]*e[5mC]*eA) [compound 531155] | 79%
531156 (antisense eT*e[5mC]*eT*eG*eA*dA*dA*dA*dG*d[5mC]*d[5mC]*d[5mC]*dT*d[5mC]*d[5mC]*eG*eA*eG*e[5mC]*eT) [compound 531156] | 0%
531157 (antisense eA*eA*eG*eT*eG*dA*dA*dT*d[5mC]*dA*dG*dA*dG*d[5mC]*dA*eG*eT*eG*eT*eA) [compound 531157] | 46%
531158 (antisense eA*e[5mC]*e[5mC]*eT*eT*dA*d[5mC]*dA*dA*dG*d[5mC]*dA*dT*d[5mC]*dT*eT*eT*eT*e[5mC]*e[5mC]) [compound 531158] | 41%
531159 (antisense eA*eT*eT*eT*eG*dT*dT*dA*dA*dA*dA*dG*dT*dT*dG*e[5mC]*eT*eT*eA*eT) [compound 531159] | 0%
531160 (antisense eT*eG*eA*eT*eA*dT*d[5mC]*dA*dT*d[5mC]*dA*dT*d[5mC]*d[5mC]*d[5mC]*eA*eA*eT*eG*eA) [compound 531160] | 13%

same assay, conditions: Table 4; HepaRG cells, electroporation with 3,000 nM antisense oligonucleotide, approx. 24 hours; PKK mRNA by RT-PCR (RTS3454), relative to untreated control cells

Substance | % inhibition
531161 (antisense e[5mC]*eA*eG*eA*e[5mC]*dA*d[5mC]*d[5mC]*dT*dT*d[5mC]*dT*dT*d[5mC]*dA*e[5mC]*eA*eA*eG*eG) [compound 531161] | 40%
531162 (antisense eA*eA*eT*eT*eT*d[5mC]*d[5mC]*d[5mC]*dA*dG*dA*dT*dG*dT*dA*eT*eT*eA*eG*eT) [compound 531162] | 43%
531163 (antisense eT*e[5mC]*eA*eG*e[5mC]*dA*dG*dA*dA*dA*dT*d[5mC]*dA*dT*dG*eT*eA*eG*eG*e[5mC]) [compound 531163] | 60%
531164 (antisense eT*eT*eA*eA*eA*dT*dA*dT*dA*dA*dA*dG*dA*dG*dA*eT*e[5mC]*e[5mC]*eT*e[5mC]) [compound 531164] | 38%
531165 (antisense eG*eT*eA*eA*eT*dA*dA*dA*dA*dG*dG*dA*dA*dT*dG*eA*eT*eA*eA*eA) [compound 531165] | 0%
531166 (antisense eA*eG*eA*e[5mC]*eA*dG*dT*dA*dA*dA*d[5mC]*dA*dA*dA*dA*eT*e[5mC]*eA*eG*eG) [compound 531166] | 12%
531167 (antisense e[5mC]*eA*eA*eG*eA*dA*dA*d[5mC]*d[5mC]*dA*d[5mC]*d[5mC]*dA*dA*dA*eG*eG*eA*eA*eG) [compound 531167] | 37%
